Data as given in patent EP4596574A1, “GLP-1/GCG/GIP TRIPLE-RECEPTOR AGONIST AND USE THEREOF” (Sunshine Lake Pharma Co., Ltd., priority 2022, dated 2024).
Marks after values point to notes of the source that are not given here.

Assays:
[1] = Glucose tolerance assessment in normal C57BL/6 mice (Example 4); assay type: in vivo; conditions: 3 nmol/kg s.c. single dose, 24 h after administration
Procedure: (§1) Twelve hours after the single administration, the animals were fasted for 12 hours and had free access to water. Blood was collected from the tail vein to determine the basal blood glucose level of each group of animals, and then 2 g/kg glucose solution was injected intraperitoneally. Blood glucose was tested at 15, 30, 60, and 90 min after glucose administration. The blood glucose concentration-time curve was drawn according to the blood glucose values measured at different time points, and the AUC0~90min of each dose group was calculated as shown in Table 4 and Figure 1. Table 4: Effects of single administration of HEC-PT74, HEC-PT75, HEC-PT77, HEC-PT78, HEC-PT80, and HEC-PT82 on glucose tolerance in normal C57 mice 24 h after administration

[2] = Glucose tolerance assessment in normal C57BL/6 mice (Example 5); assay type: in vivo; conditions: 3 nmol/kg s.c. single dose, 24 h after administration
Procedure: as §1, with “Table 5” for “Table 4”, “Figure 2.” for “Figure 1.”, “Table 5:” for “Table 4:”, “of HEC-PT86, HEC-PT96, HEC-PT112, HEC-PT113, HEC-PT114,” for “of HEC-PT74, HEC-PT75, HEC-PT77, HEC-PT78, HEC-PT80,”, “and HEC-PT119” for “and HEC-PT82”

[3] = In vivo efficacy evaluation in db/db mouse model (blood glucose); design: species or system db/db mice; conditions: db/db mice
Procedure: Blood glucose was tested before each administration.

[4] = Long-term repeated administration in diet-induced obese C57BL/6 mice (DIO); assay type: in vivo, C57/BL6 mice
Text: Experimental methods: C57/BL6 mice were randomly divided into a normal group (NFD) and a model group (HFD) at the fifth week of age. The normal group was fed with ordinary maintenance feed, while the other groups were fed with high-fat feed D12492. The body weight and food intake of mice were monitored every 3 weeks. After 16 weeks of feeding, the body weights of mice in the model group and the normal group were (49.0±2.3) g and (31.0±2.0) g, respectively, and the difference between the two groups was statistically significant. […] Body weight and food intake were measured before each administration. After 3 weeks of administration, an intraperitoneal glucose tolerance test was performed. The mice were slaughtered and samples were collected 72 h after the last administration. The liver weight was recorded, and the liver pathological conditions and blood biochemical indexes of each group were tested.

[5] = 15 min after 2 g/kg glucose i.p.
[6] = 30 min after 2 g/kg glucose i.p.
[7] = 60 min after 2 g/kg glucose i.p.
[8] = 90 min after 2 g/kg glucose i.p.
[9] = basal before 2 g/kg glucose i.p.
[10] = blood glucose AUC, 2 g/kg glucose i.p.
[11] = 10 nmol/kg s.c. once every 3 days, D7
[12] = 10 nmol/kg s.c. once every 3 days, D10
[13] = 10 nmol/kg s.c. once every 3 days, D13
[14] = 10 nmol/kg s.c. once every 3 days, D16
[15] = 10 nmol/kg s.c. once every 3 days, D19
[16] = 10 nmol/kg s.c. once every 3 days, D22
[17] = 10 nmol/kg s.c. once every 3 days, D25
[18] = 10 nmol/kg s.c. once every 3 days, D28
[19] = long-term administration 10 nmol/kg, 72 h after the last administration
[20] = long-term administration 10 nmol/kg, blood biochemical index

## CC[C@H](C)[C@H](NC(=O)[C@H](CC(C)C)NC(=O)[C@H](Cc1c[nH]c2ccccc12)NC(=O)[C@H](CCC(N)=O)NC(=O)[C@@H](NC(=O)[C@H](Cc1ccccc1)NC(=O)[C@H](C)NC(=O)[C@H](CCCCNC(=O)COCCOCCNC(=O)COCCOCCNC(=O)CC[C@H](NC(=O)CCCCCCCCCCCCCCCCCCC(=O)O)C(=O)O)NC(=O)[C@H](CCC(N)=O)NC(=O)[C@H](C)NC(=O)[C@@H](NC(=O)[C@H](CCCCN)NC(=O)[C@H](CC(=O)O)NC(=O)[C@H](CC(C)C)NC(=O)C(C)(C)NC(=O)[C@@H](NC(=O)[C@H](CO)NC(=O)[C@H](Cc1ccc(O)cc1)NC(=O)[C@H](CC(=O)O)NC(=O)[C@H](CO)NC(=O)[C@@H](NC(=O)[C@H](Cc1ccccc1)NC(=O)[C@@H](NC(=O)CNC(=O)[C@H](CCC(=O)O)NC(=O)C(C)(C)NC(=O)[C@@H](N)Cc1ccc(O)cc1)[C@@H](C)O)[C@@H](C)O)[C@@H](C)CC)[C@@H](C)CC)C(C)C)C(=O)N[C@@H](C)C(=O)NCC(=O)NCC(=O)N1CCC[C@H]1C(=O)N[C@@H](CO)C(=O)N[C@@H](CO)C(=O)NCC(=O)N[C@@H](C)C(=O)N1CCC[C@H]1C(=O)N1CCC[C@H]1C(=O)N1CCC[C@H]1C(=O)N[C@@H](CO)C(N)=O [LY3298176, tirzepatide, reference compound]
[1]; [5]
  Blood glucose level (mM) 15 min: 12.6 ± 3.5 mM
[1]; [6]
  Blood glucose level (mM) 30 min: 9.5 ± 3.3 mM
[1]; [7]
  Blood glucose level (mM) 60 min: 7.9 ± 1.4 mM
[1]; [8]
  Blood glucose level (mM) 90 min: 6.5 ± 1.3 mM
[1]; [9]
  Blood glucose level (mM) 0 min: 4.0 ± 0.8 mM
[1]; [10]
  AUC0-90 min: 768.2±171.6^a
[2]; [5]
  Blood glucose level (mM) 15 min: 13.6 ± 3.1 mM
[2]; [6]
  Blood glucose level (mM) 30 min: 9.9 ± 3.2 mM
[2]; [7]
  Blood glucose level (mM) 60 min: 6.9 ± 0.9 mM
[2]; [8]
  Blood glucose level (mM) 90 min: 7.2 ± 0.9 mM
[2]; [9]
  Blood glucose level (mM) 0 min: 4.9 ± 1.0 mM
[2]; [10]
  AUC0-90 min: 776.9±125.6^a
[3]; 10 nmol/kg s.c. once every three days, D0 (before first dose)
  Random blood glucose (mM) D0: 26.1 ± 3.8 mM
[3]; 10 nmol/kg s.c. once every three days, D3
  Random blood glucose (mM) D3: 22.4 ± 3.7 mM
[3]; 10 nmol/kg s.c. once every three days, D4
  Random blood glucose (mM) D4: 22.1 ± 4.0 mM
[3]; 10 nmol/kg s.c. once every three days, D5
  Random blood glucose (mM) D5: 24.2 ± 3.9 mM
[3]; 10 nmol/kg s.c. once every three days, D6
  Random blood glucose (mM) D6: 25.3 ± 4.0 mM
[3]; 10 nmol/kg s.c. once every three days, D7
  Random blood glucose (mM) D7: 23.5 ± 2.6 mM
[3]; 10 nmol/kg s.c. once every three days, D10
  Random blood glucose (mM) D10: 18.5 ± 5.1 mM
[3]; 10 nmol/kg s.c. once every three days, D13
  Random blood glucose (mM) D13: 20.1 ± 5.8 mM
[3]; 10 nmol/kg s.c. once every three days, D16
  Random blood glucose (mM) D16: 18.6 ± 4.0 mM
[3]; 10 nmol/kg s.c. once every three days, D19
  Random blood glucose (mM) D19: 18.7 ± 3.8 mM
[3]; 10 nmol/kg s.c. once every three days, D22
  Random blood glucose (mM) D22: 16.2 ± 4.6 mM
[3]; 10 nmol/kg s.c. once every three days, D25
  Random blood glucose (mM) D25: 16.6±3.7^a mM
[3]; 10 nmol/kg s.c., 6 h
  Random blood glucose (mM) 6 h: 16.8 ± 5.0 mM
[3]; 10 nmol/kg s.c., 24 h
  Random blood glucose (mM) 24 h: 13.0 ± 6.7 mM
[3]; 10 nmol/kg s.c., 48 h
  Random blood glucose (mM) 48 h: 19.9 ± 5.6 mM
[4]; [11]
  Cumulative food intake (g/pcs) D7: 10.2 g/pcs
  Weight gain rate (%) D7: -15.4±2.9%
[4]; [12]
  Cumulative food intake (g/pcs) D10: 13.0 g/pcs
  Weight gain rate (%) D10: -19.6±3.2%
[4]; [13]
  Cumulative food intake (g/each) D13: 16.6 g/each
  Weight gain rate (%) D13: -24.3±6.4%
[4]; [14]
  Cumulative food intake (g/each) D16: 22.1 g/each
  Weight gain rate (%) D16: -23.4±5.1%
[4]; [15]
  Cumulative food intake (g/each) D19: 27.9 g/each
  Weight gain rate (%) D19: -26.0±7.3%
[4]; [16]
  Cumulative food intake (g/each) D22: 34.2 g/each
  Weight gain rate (%) D22: -26.7±7.7%
[4]; [17]
  Cumulative food intake (g/each) D25: 40.6 g/each
  Weight gain rate (%) D25: -27.7±7.0%
[4]; [18]
  Cumulative food intake (g/each) D28: 48.1 g/each
  Weight gain rate (%) D28: -28.2±7.3%
[4]; 10 nmol/kg s.c. once every 3 days, D30
  Cumulative food intake (g/each) D30: 51.9^a g/each
[4]; 10 nmol/kg s.c. once every 3 days, D31
  Weight gain rate (%) D31: -28.0±6.8^a %
[4]; 10 nmol/kg s.c., D0
  Cumulative food intake (g/pcs) D0: 2.7 g/pcs
  Weight gain rate (%) D0: 0.0±0.0%
[4]; 10 nmol/kg s.c., D1
  Cumulative food intake (g/pcs) D1: 3.0 g/pcs
  Weight gain rate (%) D1: -6.4±0.9%
[4]; 10 nmol/kg s.c., D2
  Cumulative food intake (g/pcs) D2: 3.8 g/pcs
  Weight gain rate (%) D2: -8.9±1.3%
[4]; 10 nmol/kg s.c., D3
  Cumulative food intake (g/pcs) D3: 5.1 g/pcs
  Weight gain rate (%) D3: -8.7±1.9%
[4]; 10 nmol/kg s.c., D4
  Cumulative food intake (g/pcs) D4: 7.4 g/pcs
  Weight gain rate (%) D4: -7.7±2.1%
[4]; [19]
  Liver/g: 1.0±0.1^a g
  Weight/g: 32.6±3.9^a g
[4]; [20]
  ALT (U/L): 30.9±3.1^a U/L
  AST (U/L): 110.3±17.6^a U/L
  CHOL (mmol/L): 3.3±0.5^a mmol/L
  TRIGL (mmol/L): 0.6±0.1^a mmol/L
